Data set [1] relates to Yap1 mRNA. Put plainly: Dose-dependent inhibition of human Yap1 in SNU-449 cells (Example 9, RTS36584). The settings on record: free uptake; for % UTC (Yap1 mRNA): approximately 48 hours; for IC50: linear regression on a log/linear plot. Format: cell-based. An outline of the steps: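 SNU-449 cells (10,000/well) took up modified oligonucleotides by free uptake at a range of doses for about 48 h. Yap1 mRNA was quantified with primer-probe set RTS36584, normalised to RIBOGREEN total RNA and expressed as % untreated control; IC50 from linear regression on log/linear plot.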

For data set [2], the system named is Yap1 mRNA. The data set is described as follows: Inhibition of human Yap1 mRNA in SNU449 hepatocellular carcinoma xenograft tumors (Example 26). The class given is in vivo. The settings on record: SNU449 xenografts in NSG mice, 50 mg/kg twice weekly for five days, relative to PBS treated animals. As for the experimental part:
A SNU449 hepatocellular carcinoma xenograft tumor model was used to evaluate activity of modified oligonucleotides targeted to human Yap1. Ten million SNU449 cells in 30% matrigel were implanted subcutaneously into the flanks of female NOD Cg-Prkdcscid ll2rgtm1Wjl/SzJ (NSG) mice (from Jackson Laboratory) at 4-6 weeks of age. When tumors reached an average volume of 100 mm^3, approximately two weeks post-implantation, groups of four mice each were administered at 50 mg/kg twice weekly with modified oligonucleotides for five days. Tumors were collected and tested for Yap1 mRNA knockdown by RT-qPCR. Yap1 mRNA levels were measured as previously described using the Human Yap1 primer-probe set RTS4814. Yap1 mRNA levels were normalized to actin-beta content, as measured by primer probe set RTS5002. Results are presented in the tables below as percent control of the amount of Yap1 mRNA relative to PBS treated animals (% control).

Data set [3] relates to Yap1 mRNA. Put plainly: Dose-dependent inhibition of human Yap1 in A-431 cells (Example 6, 5,000 cells per well, RTS4814). Format: cell-based. The settings on record: Table 54, A-431 cells. In short, it runs like this:
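A-431 cells (5,000/well) took up oligonucleotides by free uptake at various doses for about 48 h. Yap1 mRNA was measured by RT-PCR (RTS4814), normalised to RIBOGREEN total RNA and expressed as % untreated control; IC50 by linear regression on a log/linear plot.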

Data set [4] relates to Yap1 mRNA. The data set is described as follows: Dose-dependent inhibition of human Yap1 in A-431 cells (Example 7, 10,000 cells per well, RTS36584). Format: cell-based. The note with it: free uptake. In short, it runs like this: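 A-431 cells at 10,000 per well received modified oligonucleotides by free uptake at several doses. After about 48 hours, Yap1 mRNA was quantified with primer-probe set RTS36584, normalized to RIBOGREEN total RNA and expressed as % untreated control. IC50 came from linear regression on a log/linear plot.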

The nature of data set [5]: Tolerability in Balb/c mice, plasma chemistry markers (Example 11). The settings on record: 50 mg/kg subcutaneously twice a week for four weeks. Format: in vivo. The procedure:
(§1) Balb/c mice were treated with modified oligonucleotides selected from studies described above and evaluated for changes in the levels of various plasma chemistry markers.
(§2) Groups of male Balb/c mice at 4-6 weeks of age (obtained from Taconic) were injected subcutaneously twice a week for four weeks (for a total of 8 treatments) with 50 mg/kg of modified oligonucleotides. One group of male Balb/c mice was injected with PBS. Mice were euthanized on day 26 post start of treatment (24 hours following the final administration).

Data set [6] can be described thus: Tolerability in Balb/c mice, body and organ weights (Example 11). Format: in vivo. The note with it: 50 mg/kg subcutaneously twice a week for four weeks, end of study. The procedure:
as §2
Body weights of Balb/c mice were measured at the end of the study, and the average body weight for each group is presented in the table below. Modified oligonucleotides that caused any changes in organ weights outside the expected range for modified oligonucleotides were excluded from further studies.

Data set [7] can be described thus: Tolerability in CD-1 mice, plasma chemistry markers (Example 15). Format: in vivo. The note with it: male CD-1 mice, 50 mg/kg s.c. twice a week for four weeks (8 treatments), day 26. As for the experimental part: CD-1 mice were treated with modified oligonucleotides selected from studies described above and evaluated for changes in the levels of various plasma chemistry markers.
(§3) Groups of four male CD-1 mice at 4-5 weeks of age (obtained from Charles River) were injected subcutaneously twice a week for four weeks (for a total of 8 treatments) with 50 mg/kg of modified oligonucleotides. One group of male CD-1 mice was injected with PBS. Mice were euthanized on day 26 post start of treatment (24 hrs following the final administration).

The nature of data set [8]: Tolerability in CD-1 mice, body and organ weights (Example 15). The class given is in vivo. The settings on record: male CD-1 mice, 50 mg/kg s.c. twice a week for four weeks (8 treatments), end of study (day 26). As for the experimental part:
as §3
Body weights of CD-1 mice were measured at the end of the study, and the average body weight for each group is presented in the table below. Modified oligonucleotides that caused any changes in organ weights outside the expected range for modified oligonucleotides were excluded from further studies.

The nature of data set [9]: Tolerability in Balb/c mice, plasma chemistry markers (Example 14). The settings on record: male Balb/c mice, 50 mg/kg s.c. twice a week for four weeks (8 treatments), day 27. The class given is in vivo. The procedure: as §1
Groups of male Balb/c mice at 5-6 weeks of age (obtained from Taconic) were injected subcutaneously twice a week for four weeks (for a total of 8 treatments) with 50 mg/kg of modified oligonucleotides. One group of male Balb/c mice was injected with PBS. Mice were euthanized on day 27 post start of treatment (24 hours following the final administration).

Data set [10] can be described thus: Tolerability in Balb/c mice, body and organ weights (Example 14). The class given is in vivo. The note with it: male Balb/c mice, 50 mg/kg s.c. twice a week for four weeks (8 treatments). The procedure: Groups of male Balb/c mice at 5-6 weeks of age (obtained from Taconic) were injected subcutaneously twice a week for four weeks (for a total of 8 treatments) with 50 mg/kg of modified oligonucleotides. One group of male Balb/c mice was injected with PBS. […]
Modified oligonucleotides that caused any changes in organ weights outside the expected range for modified oligonucleotides were excluded from further studies.

Strand notation (5' to 3'): a small letter for the sugar, then the base; units joined by * are phosphorothioate-linked, units joined directly phosphodiester-linked; [ ] holds rarer units or linkages, { } end groups; capitals alone tell only the bases. e = 2'-O-(2-methoxyethyl) (MOE); k = constrained ethyl (cEt); [5mC] = 5-methylcytosine; d = 2'-deoxy (DNA); m = 2'-O-methyl

Usually IC50 stands for the concentration needed to halve the response being measured. A higher IC50 goes with lower potency. Consider “1198641 (kA*kT*dT*dA*dG*dA*dG*dT*dA*dT*dG*dT*kG*eG*k[5mC]*eA; antisense) [compound 1198641]”, for which the “% UTC (Yap1 mRNA)” value in data set [1] (31.3 nM) is reported as 55 % UTC; in data set [1] (125.0 nM), 29 % UTC; in data set [1] (500.0 nM), 11 % UTC; in [1] (2000.00 nM) it was 3 % UTC. This substance also came in with an IC50 in data set [1] of 30 nM. Moreover, in data set [2], the “Yap1 mRNA in tumors, % control” value was 68 % control.
Turning to “1198501 (kG*kA*dT*dT*dT*dA*dG*dG*dA*dT*dG*e[5mC]*kA*eT*kG*eG; antisense) [compound 1198501]”, the “% UTC (Yap1 mRNA)” value is given as 65 % UTC in data set [1] (31.3 nM), 36 % UTC in data set [1] (125.0 nM), 17 % UTC in data set [1] (500.0 nM) and 11 % UTC in data set [1] (2000.00 nM). In data set [1], this substance registered an IC50 of 100 nM. Further, the “Yap1 mRNA in tumors, % control” value in data set [2] was found to be 54 % control.
Turning to “716454 (antisense k[5mC]*kG*kA*dG*dA*dT*dT*dT*dA*dA*dA*dT*dA*kA*kG*kG) [compound 716454]”, the 50% inhibitory concentration (IC50) in [3] (Yap1 mRNA, linear regression on a log/linear plot) is 2600 nM. Further, the “% UTC 148 nM” value in data set [3] (free uptake, 148 nM, approximately 48 hours, RTS4814) turned out to be 91 % UTC. Further, in data set [3] (free uptake, 444 nM, approximately 48 hours, RTS4814), the “% UTC 444 nM” value stood at 71 % UTC. The “% UTC 1333 nM” value in [3] (free uptake, 1333 nM, approximately 48 hours, RTS4814) is reported as 54 % UTC. Besides, the “% UTC 4000 nM” value in data set [3] (free uptake, 4000 nM, approximately 48 hours, RTS4814) turned out to be 48 % UTC. For the same substance, the “Yap1 mRNA, % UTC” value in data set [4] (15.6 nM, A-431 cells, 10,000 cells per well, approximately 48 hours) worked out at 84 % UTC. For the same substance, the “Yap1 mRNA, % UTC” value in [4] (62.5 nM, A-431 cells, 10,000 cells per well, approximately 48 hours) is 39 % UTC. Also, in data set [4] (4000.00 nM, A-431 cells, 10,000 cells per well, approximately 48 hours), the “Yap1 mRNA, % UTC” value is 6 % UTC. Also, half-maximal inhibition in data set [4] (A-431 cells, approximately 48 hours, linear regression on log/linear plot) (IC50) required 100 nM. In data set [5], this substance showed an ALT of 39 U/L, an AST of 60 U/L, a BUN of 14 mg/dL and a TBIL of 0.18 mg/dL. Further, in data set [6], the Kidney weight is 0.42 g, the Liver weight is on record as 1.48 g, the Spleen weight was 0.14 g and the body weight was determined as 25 g. In data set [7], this substance registered an ALB of 2.3 g/dL, an ALT of 44 U/L and an AST of 56 U/L. In data set [8], the Kidney weight is on record as 0.55 g, the Liver weight is 2.31 g, the Spleen weight was 0.20 g and the body weight is 38 g.
Turning to “1197269 (kT*kA*kA*dA*mG*dT*dG*dT*dA*dT*dG*dT*d[5mC]*kA*kG*kA; antisense) [compound 1197269]”, the “% UTC (Yap1 mRNA)” value in [1] (31.3 nM) is given as 48 % UTC; in data set [1] (125.0 nM) it was 21 % UTC; in data set [1] (500.0 nM), 7 % UTC; in [1] (2000.00 nM), 1 % UTC. Moreover, the IC50 in [1] is less than 30 nM. For the same substance, in data set [2], the “Yap1 mRNA in tumors, % control” value came to 57 % control.
Consider “1198673 (kG*kA*dT*dT*dT*dA*dG*dG*dA*dT*dG*d[5mC]*kA*eT*kG*eG; antisense) [compound 1198673]”, for which the “% UTC (Yap1 mRNA)” value in data set [1] (31.3 nM) came out at 51 % UTC; in [1] (125.0 nM), 26 % UTC; in [1] (500.0 nM) it was 8 % UTC; in data set [1] (2000.00 nM) it was 3 % UTC. This substance also had an IC50 in [1] of less than 30 nM. Moreover, the “Yap1 mRNA in tumors, % control” value in data set [2] is reported as 52 % control.
Take “958739 (kA*kG*k[5mC]*dA*dA*dT*dA*dG*dA*dG*dT*dA*dA*k[5mC]*k[5mC]*kA; antisense) [compound 958739]”: the “Yap1 mRNA, % UTC” value in data set [4] (Table 61, 15.6 nM, A-431 cells 10,000 cells per well, 48 hours) came out at 77 % UTC. Besides, the “Yap1 mRNA, % UTC” value in data set [4] (Table 61, 62.5 nM, A-431 cells 10,000 cells per well, 48 hours) was found to be 46 % UTC. The “Yap1 mRNA, % UTC” value in data set [4] (Table 61, 4000.00 nM, A-431 cells 10,000 cells per well, 48 hours) was found to be 7 % UTC. Besides, it took 100 nM to reach half-maximal inhibition in data set [4] (Table 61, A-431 cells 10,000 cells per well) (IC50). Further, in [9], the ALT is 145 U/L, the AST was 186 U/L, the BUN came out at 21 mg/dL and the TBIL turned out to be 0.21 mg/dL. In data set [10] (end of study (day 27)), this substance returned a Kidney weight of 0.36 g, a Liver weight of 1.58 g and a Spleen weight of 0.13 g. Besides, in [10] (measured on day 25), the body weight was found to be 24 g.
Consider “1074461 (kG*kA*kA*dA*dT*dT*dG*dT*d[5mC]*dT*d[5mC]*dA*dT*kG*k[5mC]*k[5mC]) [compound 1074461]”, for which the “% UTC (Yap1 mRNA)” value in [1] (31.3 nM) is listed as 76 % UTC; in [1] (125.0 nM), 37 % UTC; in data set [1] (500.0 nM), 15 % UTC; in data set [1] (2000.00 nM), 5 % UTC. This substance also came in with an IC50 in data set [1] of 100 nM. Also, in data set [7], the ALB amounted to 2.2 g/dL. This substance gave an ALT in [7] of 1563 U/L. Also, the AST in data set [7] is recorded as 865 U/L.

Source of the values: patent US11214803B2, “Modulators of YAP1 expression” (Ionis Pharmaceuticals, Inc., priority 2019, dated 2022).
